Data from patent US9554576B2, “Tetrazolinone compounds and their use as pesticides” (SUMITOMO CHEMICAL COMPANY, LIMITED, priority 2012, dated 2017).

Tested on: wheat rust fungi (Puccinia recondita)
Assay: Comparative Test Example: wheat rust foliar spray test
Type: in vivo
Details: wheat (cv; Shirogane), 500 ppm foliar spray, inoculated after 5 days
Description: The spores of wheat rust fungi (Puccinia recondita) were sprinkling-inoculated. After inoculation, the plants were placed under a dark and humid condition at 23° C. for 1 day and were then cultivated at 20° C. under lighting for 8 days and a lesion area was observed.

Cc1cc(C)n(-c2ccc(OCc3ccccc3-n3nnn(C)c3=O)c(Cl)c2)n1 [control compound, 1-{2-[2-chloro-4-(3,5-dimethyl-pyrazol-1-yl)-phenoxymethyl]-phenyl}-4-methyl-1,4-dihydrotetrazole-5-one]
lesion area compared to the lesion area in untreated plants: ≥ 70%
